Measurements as given in US20150283127A1, “SAQUINAVIR-NO FOR IMMUNOMODULATION” (ONCONOX APS, priority 2012, published 2015).
Marks after values point to notes of the source that are not given here.

Experiments:
[1] = test system: murine SPC; assay: Apoptosis in murine SPC, Annexin V-FITC staining and cytofluorimetry; type: cell-based, mouse
From the text: Experimental animals (C57BL/6 mice, BALB/c mice and Dark Agouti rats) were obtained from the Animal House Facility of the Institute for Biological Research “Sinisa Stanković”, Belgrade, Serbia. Spleen cells (SPC) were isolated from murine spleens and lymph node cells (LNC) were obtained from rat cervical lymph nodes of untreated animals. Draining lymph node cells (DLNC) were obtained from popliteal lymph nodes 8-10 days after immunization of rats with myelin basic protein (guinea pig MBP, kind gift from professor Alexander Fluegel, University of Goettingen, Germany) and complete Freund's adjuvant (CFA, Difco, Detroit, Mich.). The organs were mechanically disrupted, passed through 40-μm nylon mesh filter and the resulting suspension was collected by centrifugation. Red blood cells from single cell suspensions obtained from spleens were lysed using RBC Lysis Buffer (eBioscience, San Diego, Calif.). CD4+ cells were purified from SPC using biotin conjugated antibody specific for CD4 (eBioscience) and IMag SAv particles plus (BD Biosciences, San Diego, Calif.). Obtained purity of CD4 population was more than 97% as determined by flow cytometry. SPC and LNC were seeded at 5×10^6/ml/well, DLNC at 2.5×10^6/ml/well and CD4+ cells at 1×10^6/ml/well of 24-well plates. Cells infiltrating spinal cords (SC) were obtained from SC of rats immunized with MBP+CFA at the time when rats suffered from severe clinical signs of experimental autoimmune encephalomyelitis (EAE). Rats were perfused with sterile PBS, SC were homogenized, adjusted to 30% Percoll (Sigma-Aldrich) and overlaid on 70% Percoll gradient. Following centrifugation at 870 g for 50 min the SC cells (SCC) were recovered from the […] Percoll interface and washed in RPMI-1640 medium. SCC were seeded at 0.5×106/200 μl/well of 96-well plates. SPC and LNC were stimulated with 2.5 μg/ml concanavalin A (ConA, Sigma-Aldrich), DLNC with MBP (10 ng/ml), CD4+ cells with anti-CD3 and anti-CD28 antibody (1 μg/ml each, both from eBioscience) and SCC were left untreated.
The cells positive for Annexin V-FITC were considered apoptotic. The stained cells were acquired by a FACSCalibur cytometer (BD Biosciences) and analyzed using CellQuest Software (BD Biosciences).

[2] = test system: S6 phosphorylation (S6 kinase activity); assay: S6 phosphorylation in murine CD4+ cells (immunoblot); type: cell-based, mouse; conditions: anti-CD3 and anti-CD28, 24 hours
Protocol: Whole-cell lysates were prepared in a solution containing 62.5 mM Tris-HCl (pH 6.8, 2% w/v sodium dodecyl sulfate (SDS), 10% glycerol, 50 mM dithiothreitol (DTT), 0.01% w/v bromophenol blue, 1 mM phenylmethanesulphonyl fluoride or phenylmethylsulphonyl fluoride (PMSF), 1 μg/ml aprotinine, 2 mM EDTA and samples containing 20 μg of proteins (measured by Lowry protein assay) were electrophoresed on a 12% SDS-polyacrylamide gel. The samples were electro-transferred to polyvinylidene difluoride membranes at 5 mA/cm2, using semi-dry blotting system (Fastblot B43, Biorad, Muenchen, Germany). The blots were blocked with 5% w/v nonfat dry milk in PBS 0.1% Tween-20 and probed with specific antibodies to S6 and phosphorylated-S6 (Ser240/244) at 1:500 dilution (both from Cell Signaling Technology, Boston, Mass.), followed by incubation with secondary antibody at 1:10000 dilution (ECL donkey anti-rabbit horseradish peroxidase (HRP)-linked, GE Healthcare, Buckinghamshire, England, UK). […]
In an attempt to determine intracellular signaling that might be responsible for the observed influence of Saq-NO on the cytokines generation, level of S6 phosphorylation as the measure of S6 kinase activity was detected by immunoblot. CD4+ cells were stimulated with anti-CD3 and anti-CD28 in the presence of Saq-NO or Saq for 24 hours and cell lysates were subsequently obtained and analyzed.

[3] = test system: PLP-induced EAE; assay: PLP-induced EAE in SJL mice; type: in vivo
From the text: Seven to 8 weeks-old male C57Bl6 mice and 6 to 7 weeks-old female SJL mice (Harlan Laboratories srl, San Pietro al Natisone, Udine, Italy) were used in the experiments. They were kept under standard laboratory conditions (non specific pathogen free) with free access to food (Harlan Global Diet 2018) and water and were allowed to adapt at least one week to their environment before commencing the study.
PLP (139-151) was synthesized by Genemed synthesis (San Francisco Calif.). EAE was induced as described by J. St. Louis et al. (4). The mice were immunized with 75 μg PLP emulsified in CFA with 6 mg/ml Mycobacterium tuberculosis H37RA (Difco, Detroit, Mich., USA) to make a 1:1 emulsion. Each mouse received subcutaneous injections of 200 μl emulsion divided among four sites draining into the axillary and inguinal lymph nodes. Pertussis toxin (Calbiochem, Nottingham, UK) was used as a co-adjuvant and was administered i.p. at the dose of […] on day 0 and 2 post immunization. The mice were observed every day by measuring their body weights and clinical signs of EAE until 30 days after immunization. These clinical grading were carried out by an observer unaware of the treatment: 0=no sign of disease; 0.5=partial tail paralysis; 1=tail paralysis; 1.5=tail paralysis+partial unilateral hindlimb paralysis; 2=tail paralysis+hindlimb weakness or partial hindlimb paralysis; 2.5=tail paralysis+partial hindlimb paralysis (lowered pelvi); 3=tail paralysis+complete hindlimb paralysis; 3.5=tail paralysis+complete hindlimb paralysis+incontinence; 4=tail paralysis+hindlimb paralysis+weakness or partial paralysis of forelimbs; 5=moribund or dead.
Four groups of 7/8 mice were treated under a late prophylactic regime from day 7 to day 30 as follow:
Group 1: Saquinavir 10 mg/Kg (i.p. once daily)
Group 2: Saq-NO 10 mg/Kg (s.c. once daily)
Group 3: Saq-NO 20 mg/Kg (i.p. once daily)
Group 4: DMSO/H2O (vehicle) (i.p. once daily)

[4] = late prophylactic, 10 mg/Kg once daily

Row | Structure (SMILES) | % of AnnV+ cells ([1]; C 5 μg/ml) | % of AnnV+ cells ([1]; C 10 μg/ml) | % of AnnV+ cells ([1]; C 20 μg/ml) | S6 phosphorylation [2] | Cumulative score and duration of the disease compared to vehicle treated mice [3, 4] | Clinical course of the disease ([3]; late prophylactic, 10 mg/Kg once daily, day 7 to 30) | Cum score and duration compared to vehicle-treated mice ([3]; late prophylactic, high dose 20 mg/Kg i.p. once daily) | Disease after interruption of the treatment ([3]; observed for further 20 days)
1 | CC(C)(C)NC(=O)C1C[C@@H]2CCCC[C@@H]2CN1CC(O[N+](=O)[O-])[C@H](Cc1ccccc1)NC(=O)C(CC(N)=O)NC(=O)c1ccc2ccccc2n1 (stereo partly shown) [Saq-NO, nitric ester of Saquinavir] | 30.2 +/− 7.5% | 38.4 +/− 4.8% | 44.5 +/− 11.5% | diminished | significantly lower | ameliorated | lower but not significant | most evidently
2 | CC(C)(C)NC(=O)[C@@H]1C[C@@H]2CCCC[C@@H]2CN1C[C@@H](O)[C@H](Cc1ccccc1)NC(=O)[C@H](CC(N)=O)NC(=O)c1ccc2ccccc2n1 [Saq, (2S)—N-[(2S,3R)-4-[(3S)-3-(tert-butylcarbamoyl)-decahydroisoquinolin-2-iy]-3-hydroxy-1-phenylbutan-2-il]-2-(quinolin-2-ylformamido)butanediamide, reference compound] | 27.5 +/− 4.8% | 31.6 +/− 6.4% | 49.8 +/− 4.8* % | much weaker | lower but not significant |  |  | 
